This is an account of results in patent US12213485B2, “Synergistic methods of using benzoxaborole compounds and preservative gases as an antimicrobial for crops” (AGROFRESH INC., priority 2016, dated 2025).

For assay [1], the system named is Fusarium sambucinum (FUSASA). Nature of the assay: In vitro fungal growth on inoculated agar plates, benzoxaborole and CO2 chamber treatment. The class given is cell-based. From the text:
(§1) The following experiments were used to determine synergy between benzoxaborole Compounds A, B, and/or C and preservative gases, such as carbon dioxide (CO2) and sulfur dioxide (SO2). Specific rates or any other unique conditions are noted within the corresponding results tables. Each experiment comprised an air-tight 36 liter (L) chamber (Fisher Scientific, P/N: 08-642-23C), fitted with a bulkhead septum port (Swagelok, P/N: SS-400-61, Solon, OH) used for treatment delivery, as well as for monitoring (using needle extraction) carbon dioxide (CO2), sulfur dioxide (SO2), oxygen (O2) or other headspace samples. A variable speed fan (Thermaltake, Mobile Fan II, P/N: A1888, Taipei City, Taiwan) set to low was also used to circulate the headspace atmosphere.
(§2) In vitro and in vivo experiments were performed concurrently in triple replicates (i.e., triplicate) unless otherwise noted. For in vitro experiments, a single 6-well microtiter plate or three, 10-cm petri plates each containing half strength Potato Dextrose Agar were prepared. Each well or plate was inoculated with 1 microliter (μL) of 1×10^5 spores/ml of the appropriate pathogenic spore suspension (e.g., Botrytis cinerea, BOTRCI; Penicillium expansum, PENIEX; Mucor piriformis, MUCOPI; Fusarium sambucinum FUSASA; or Aspergillus brasiliensis, ASPEBR). The inoculated microtiter or petri plates were then sealed with a breathable film (AeraSeal; P/N: B-100, Excel Scientific, Victorville, CA).
(§3) For treatment, the inoculated agar plates and clamshells containing fruits (e.g., strawberries and grapes) were placed inside a 36 L experimental chamber unit, which was then sealed prior to commencement of compound treatments. The chamber remained sealed throughout the duration of the experiment except for addition of treatment to the chamber, and post-treatment ventilation.
(§4) Benzoxaborole Compound A or Compound B was dissolved in acetone and dispensed onto a 60 mm Whatman #1 filter paper disk using a pipette. The acetone was permitted to evaporate for five minutes before the disk was placed on a watch glass in each chamber.
(§5) A 12% CO2 headspace treatment was then established in the chamber by permitting 10 grams (g) of crushed dry ice placed in a weigh boat in the chamber to evaporate in the sealed chamber. However, the bulkhead port of the chamber was loosened to permit the release of internal pressure. Optionally, a fan was used during the initial hours of treatment (i.e., up to about 6 hours of treatment) to ensure uniform treatment exposure of fruits and plates.
(§6) Untreated controls and CO2 treated chambers contained an acetone-treated disk with similar evaporation for five minutes. CO2 and O2 levels in the chamber were monitored using a handheld gas detector (Dansensor Checkpoint II; P/N 600111, Ringsted, Denmark). Temperature and relative humidity were also monitored within the chamber using data loggers (Onset HOBO; P/N U12-013, Bourne, MA).
(§7) The chamber for all in vitro and in vivo experiments was held at room temperature (i.e., from about 21° C. to about 23° C.) typically for about 3.5 days (i.e., about 84 hours) of treatment exposure. Chambers were then vented. After an additional 2-3 days with the chamber at room temperature, post-treatment radial growth (in mm) of each in vitro pathogen (see Examples 1-7, Tables 1-7) was measured on the inoculated plates using electronic calipers (Mitutoyo, P/N: CD-6-CX, Aurora, IL). In addition, the point of inoculation on fruits was assessed for indication of in vivo disease incidence (e.g., yes or no) and severity of disease incidence (see Examples 8-16, Tables 8-16). Disease severity was rated on a scale ranging from 0 to 4, where “0” indicated no disease severity, “1” indicated minimal disease severity, “2” indicated medium disease severity, “3” indicated high disease severity, and “4” indicated exceptionally high disease severity. […]

The test system of assay [2] is Penicillium expansum (PENIEX). The description is as above. The class given is cell-based.
Text: as §1, §2, §3, §4, §5, §6, §7

Assay [3] has as its system Mucor piriformis (MUCOPI). Described as above. The class given is cell-based. The settings on record: Table 3, 12% CO2 alone, evaluated 2 days after treatment, 6-well microtiter plate, fan first 6 hours, >90% R.H.
Text: as §1, §2, §3, §4, §5, §6, §7

Assay [4] relates to Botrytis cinerea (BOTRCI). The assay is described as above. The format is cell-based.
Text: as §1, §2, §3, §4, §5, §6, §7

The test system of assay [5] is Aspergillus brasiliensis (ASPEBR). The assay is described as above. The class given is cell-based.
Text: as §1, §2, §3, §4, §5, §6, §7

Assay [6] has as its system Mucor piriformis (MUCOPI) on strawberries. Put plainly: In vivo disease severity on wound-inoculated strawberries, benzoxaborole and CO2 chamber treatment. To be noted: Table 10, 12% CO2 alone, evaluated 2 days after treatment, fan first 6 hours, >90% R.H.
Text: as §1
(§8) For in vivo experiments, eight strawberry fruits per repetition were surface sterilized with a 70% ethanol solution. After sterilization, the strawberries were rinsed twice with deionized water. Each strawberry fruit was wounded using a T15 screwdriver tip to a uniform depth of eight mm (8 mm). Each fruit wound was inoculated with 20 μL of 1×10^5 spores/ml pathogen spore suspension of B. cinerea or M. piriformis. The strawberries were then placed with the stem facing downwards inside a 1-pound strawberry clamshell.
as §3, §4, §5, §6, §7

Assay [7] concerns Botrytis cinerea (BOTRCI) on strawberries. Described as above.
Text: as §1, §8, §3, §4, §5, §6, §7

Assay [8] concerns Penicillium expansum (PENIEX) on table grapes. Nature of the assay: In vivo disease severity on wound-inoculated table grapes, benzoxaborole and CO2 chamber treatment. To be noted: Table 16, 12% CO2 alone, evaluated 1 day after treatment, fan continuous.
Text: as §1
(§9) Similarly, table grape fruits were also tested in vivo. More specifically, 16-20 table grapes per repetition were washed and inoculated with pathogens (as described above for the strawberries). However, an ethanol-sterilized push pin, rather than a T15 screwdriver, was used to wound the stem-end of the grapes. The grapes were inoculated in the wound, and then arranged inside a 1-pint clamshell.
as §3, §4, §5, §6, §7

Assay [9] has as its system Botrytis cinerea (BOTRCI) on table grapes. The description is as above. To be noted: Table 15, 12% CO2 alone, evaluated 1 day after treatment, fan continuous.
Text: as §1, §9, §3, §4, §5, §6, §7

Where [10] appears, read: Table 5, 12% CO2 alone, evaluated 2 days after treatment, 6-well plate, fan first 6 hours, >90% R.H.
The mark [11] stands for this setting: Table 1, 12% CO2 alone, evaluated 2 days after treatment completion, 6-well microtiter plate, 4 replicates, fan first 6 hours.
Where [12] appears, read: Table 4, 12% CO2 alone, evaluated 2 days after treatment completion, 6-well microtiter plate, fan first 6 hours.
Setting [13] is: Table 5, compound 0.14 mg/L + 12% CO2, Colby equation E=x+y−x*y/100.
[14] abbreviates: Table 5, compound 0.14 mg/L + 12% CO2, evaluated 2 days after treatment, 6-well plate, fan first 6 hours, >90% R.H.
[15] abbreviates: Table 5, compound alone 0.14 mg/L, evaluated 2 days after treatment, 6-well plate, fan first 6 hours, >90% R.H.

Take `O=C=O` [CO2, carbon dioxide]: the “Growth (diameter, mm) 12% CO2” value in [1] (setting [10]) is 33.9 mm; in [2] (setting [11]), 18.6 mm; in [2] (Table 2, 12% CO2 alone, evaluated 2 days after treatment, 6-well microtiter plate, fan first 6 hours, >90% R.H.), 21.3 mm; in assay [2] (setting [12]), 21.2 mm; in assay [2] (setting [10]), 19.9 mm; in assay [2] (Table 7, 12% CO2 alone, evaluated 3 days after treatment, 10 cm Petri plates, fan continuous) it was 25.8 mm. For the same compound, the “Growth (diameter, mm) 12% CO2” value in [3] was 35.0 mm; in assay [4] (setting [11]), 28.0 mm; in [4] (Table 3, 12% CO2 alone, evaluated 2 days after treatment, 6-well microtiter plate, fan first 6 hours, >90% R.H.), 30.9 mm; in assay [4] (setting [12]), 33.4 mm; in assay [4] (setting [10]), 35.0 mm; in [4] (Table 6, 12% CO2 alone, evaluated 3 days after treatment, 10 cm petri plates, fan continuous), 78.9 mm. Moreover, the “Growth (diameter, mm) 12% CO2” value in assay [5] (setting [10]) amounted to 26.2 mm. The “Growth (Severity, 0 to 4) 12% CO2” value was 3.0 in [6]; 3.7 in [7] (Table 8, 12% CO2 alone, evaluated 2 days after treatment, 4 replicates, fan first 6 hours, >90% R.H.); 3.5 in [7] (Table 9, 12% CO2 alone, evaluated 3 days after treatment, fan first 6 hours, >90% R.H.); 2.7 in assay [7] (Table 11, 12% CO2 alone, evaluated 2 days after treatment, fan first 6 hours, >90% R.H.); 3.4 in assay [7] (Table 12, 12% CO2 alone, evaluated 2 days after treatment, fan first 6 hours, >90% R.H.); 3.2 in assay [7] (Table 13, 12% CO2 alone, evaluated 3 days after treatment, fan run continuously). Moreover, the “Growth (Severity, 0 to 4) 12% CO2” value worked out at 3.9 in assay [7] (Table 14, 12% CO2 alone, evaluated 3 days after treatment, fan continuous); 1.9 in assay [8]; 1.4 in assay [9].

Regarding `Fc1ccc2c(c1)COB2OCCOB1OCc2cc(F)ccc21` [Compound B], the “Colby Calculation” value in [1] (setting [13]) is given as 100.4; in assay [2] (setting [13]) it was 102.4; in assay [4] (setting [13]) it was 103.4; in assay [5] (setting [13]), 112.0; in assay [7] (Table 11, compound 0.14 mg/L + 12% CO2, Colby equation E=x+y−x*y/100) it was 105.0; in [7] (Table 12, compound 0.14 mg/L + 12% CO2, Colby equation E=x+y−x*y/100), 100.9. Also, the “Growth (diameter, mm) Cmpd + 12% CO2” value in assay [1] (setting [14]) is 3.4 mm; in assay [2] (setting [14]) it was 6.4 mm; in assay [4] (setting [14]), 2.7 mm; in assay [5] (setting [14]), 0.0 mm. The “Growth (diameter, mm) Cmpd” value turned out to be 3.6 mm in assay [1] (setting [15]), 7.7 mm in [2] (setting [15]), 3.5 mm in assay [4] (setting [15]) and 3.6 mm in [5] (setting [15]). Besides, the “Growth (Severity, 0 to 4) Cmpd + 12% CO2” value in assay [7] (Table 11, compound 0.14 mg/L + 12% CO2, evaluated 2 days after treatment, fan first 6 hours, >90% R.H.) is 0.5; in [7] (Table 12, compound 0.14 mg/L + 12% CO2, evaluated 2 days after treatment, fan first 6 hours, >90% R.H.), 0.3. Moreover, the “Growth (Severity, 0 to 4) Cmpd” value turned out to be 0.9 in assay [7] (Table 11, compound alone 0.14 mg/L, evaluated 2 days after treatment, fan first 6 hours, >90% R.H.) and 0.4 in assay [7] (Table 12, compound alone 0.14 mg/L, evaluated 2 days after treatment, fan first 6 hours, >90% R.H.).
